Earlier results, collected in patent US20110288064A1, “METHODS FOR TREATING DISORDERS ASSOCIATED WITH […] IN A MAMMAL” (priority 2005, published 2011).
“Also recorded” adds a separate entry of the source. Like-named read-outs stand apart in the source and are kept apart here.

Assays:
[1] = patients, 25 mg/day monotherapy
[2] = animal model for homozygous FH, for example at 25 mg/day
[3] = hoFH patients, ezetimibe 10 mg/day added to maximal statin regimen (atorvastatin or simvastatin 80 mg/day)
[4] = clinical studies

## O=C(NC1CCN(CCCCC2(C(=O)NCC(F)(F)F)c3ccccc3-c3ccccc32)CC1)c1ccccc1-c1ccc(C(F)(F)F)cc1 [BMS-201038, N-(2,2,2-Trifluorethyl)-9-[4-[4-[[[4′-(trifluoromethyl)[1,1′biphenyl]-2-Yl]carbonyl]amino]-1-piperidinyl]butyl]9H-fluorene-9-carboxamide]
[1]
  adverse events: gastrointestinal disturbances, abnormalities in liver function, and hepatic steatosis; also recorded: gastrointestinal disorders, abnormalities in liver function and/or hepatic steatosis
[2]
  plasma cholesterol levels: effectively reduced plasma cholesterol levels in a dose dependent manner

## O=C1[C@H](CC[C@H](O)c2ccc(F)cc2)[C@@H](c2ccc(O)cc2)N1c1ccc(F)cc1 [ezetimibe]
[3]
  total reduction of LDL-C levels: 27%

## Cc1cc(C)c2c3ccccc3n(Cc3ccc([C@@H](C(=O)N[C@H](CO)c4ccccc4)C4CCCC4)cc3)c2n1 [implitapide, (2S)-2-cyclopentyl-2-[4-[(2,4-dimethyl-9H-pyrido[2,3-b]indol-9-yl)methyl]phenyl]-N-[(1S)-2-hydroxy-1-phenylethyl]ethanamide]
[4]; 80 mg/day or greater
  therapeutic efficacy: therapeutically effective
[4]; 80 mg/day or greater (80 mg/day, 160 mg/day)
  adverse events: gastrointestinal disturbances, abnormalities in liver function, and hepatic steatosis; also recorded: gastrointestinal disorders, abnormalities in liver function and/or hepatic steatosis
